Measurements as given in patent US20130184320A1, “Imine Compounds” (BASF SE, priority 2010, published 2013).

Key:
Type in all cases: in vivo
Ceratitis capitata = assay: B.5 Mediterranean fruitfly microtiter plate diet test; conditions: 120 h, Mediterranean fruitfly eggs and larvae on diet, 5 days, read-out: mortality in comparison with untreated controls
Procedure: B.5 Mediterranean Fruitfly (Ceratitis capitata)
For evaluating control of Mediterranean fruitfly (Ceratitis capitata) the test unit consisted of microtiter plates containing an insect diet and 50-80 C. capitata eggs.
The compounds were formulated using a solution containing 75% v/v water and 25% v/v DMSO. Different concentrations of formulated compounds were sprayed onto the insect diet at 5 μl, using a custom built micro atomizer, at two replications.
(§1) After application, microtiter plates were incubated at about 28±1° C. and about 80±5% relative humidity for 5 days. Egg and larval mortality was then visually assessed.

Aphis craccivora = assay: B.2 Cowpea aphid spray test on potted cowpea plants; conditions: sprayed plants, assessed after 24, 72 and 120 hours, read-out: mortality in comparison with untreated controls
Procedure: B.2 Cowpea Aphid (Aphis craccivora)
Potted cowpea plants colonized with approximately 100-150 aphids of various stages were sprayed after the pest population had been recorded. Population reduction was assessed after 24, 72, and 120 hours.

Myzus persicae = assay: B.4 Green peach aphid systemic test, artificial diet in 96-well plates; conditions: 72 h, 3 days, read-out: mortality in comparison with untreated controls
Description: B.4 Green Peach Aphid (Myzus persicae)
For evaluating control of green peach aphid (Myzus persicae) through systemic means the test unit consisted of 96-well-microtiter plates containing liquid artificial diet under an artificial membrane.
The compounds were formulated using a solution containing 75% v/v water and 25% v/v DMSO. Different concentrations of formulated compounds were pipetted into the aphid diet, using a custom built pipetter, at two replications.
After application, 5-8 adult aphids were placed on the artificial membrane inside the microtiter plate wells. The aphids were then allowed to suck on the treated aphid diet and incubated at about 23±1° C. and about 50±5% relative humidity for 3 days. Aphid mortality and fecundity was then visually assessed.

Plutella xylostella = assay: B.3 Diamond back moth leaf dip test on Chinese cabbage; conditions: foliar, recorded 24, 72 and 120 hours after treatment, read-out: mortality in comparison with untreated controls
Procedure: B.3 Diamond Back Moth (Plutella xylostella)
Leaves of Chinese cabbage were dipped in test solution and air-dried. Treated leaves were placed in petri dished lined with moist filter paper. Mortality was recorded 24, 72, and 120 hours after treatment.

Heliothis virescens = assay: B.11 Tobacco budworm I microtiter plate diet test; conditions: 120 h, tobacco budworm eggs and larvae on diet, 5 days, read-out: mortality in comparison with untreated controls
Procedure: B.11 Tobacco Budworm (Heliothis virescens) I
For evaluating control of tobacco budworm (Heliothis virescens) the test unit consisted of 96-well-microtiter plates containing an insect diet and 15-25 H. virescens eggs.
The compounds were formulated using a solution containing 75% v/v water and 25% v/v DMSO. Different concentrations of formulated compounds were sprayed onto the insect diet at 10 μl, using a custom built micro atomizer, at two replications.
as §1

Anthonomus grandis = assay: B.12 Boll weevil microtiter plate diet test; conditions: 120 h, boll weevil eggs and larvae on diet, 5 days, read-out: mortality in comparison with untreated controls
Procedure: B.12 Boll Weevil (Anthonomus grandis)
For evaluating control of boll weevil (Anthonomus grandis) the test unit consisted of 24-well-microtiter plates containing an insect diet and 20-30 A. grandis eggs.
The compounds were formulated using a solution containing 75% v/v water and 25% v/v DMSO. Different concentrations of formulated compounds were sprayed onto the insect diet at 20 μl, using a custom built micro atomizer, at two replications.
After application, microtiter plates were incubated at about 23±1° C. and about 50±5% relative humidity for 5 days. Egg and larval mortality was then visually assessed.

Dichromothrips corbetti = assay: B.6 Orchid thrips floral-immersion test; conditions: 96 h, orchid thrips adults, 4 days, read-out: mortality in comparison with untreated controls
Procedure: B.6 Orchid Thrips (dichromothrips corbetti)
Dichromothrips corbetti adults used for bioassay were obtained from a colony maintained continuously under laboratory conditions. For testing purposes, the test compound was diluted to a concentration of 500 ppm (wt compound: vol diluent) in a 1:1 mixture of acetone:water (vol:vol), plus 0.01% vol/vol Kinetic® surfactant.
Thrips potency of each compound was evaluated by using a floral-immersion technique. Plastic petri dishes were used as test arenas. All petals of individual, intact orchid flowers were dipped into treatment solution and allowed to dry. Treated flowers were placed into individual petri dishes along with 10-15 adult thrips. The petri dishes were then covered with lids. All test arenas were held under continuous light and a temperature of about 28° C. for duration of the assay. After 4 days, the numbers of live thrips were counted on each flower, and along inner walls of each petri dish. The level of thrips mortality was extrapolated from pre-treatment thrips numbers.

bemisia argentifolii = assay: B.8 Silverleaf whitefly spray test on cotton plants; conditions: 300 ppm; silverleaf whitefly adults on sprayed cotton; 3 days
Description: B.8 Silverleaf Whitefly (bemisia argentifolii)
The active compounds were formulated in cyclohexanone as a 10,000 ppm solution supplied in tubes. The tubes were inserted into an automated electrostatic sprayer equipped with an atomizing nozzle and they served as stock solutions for which lower dilutions were made in 50% acetone:50% water (v/v). A nonionic surfactant (Kinetic®) was included in the solution at a volume of 0.01% (v/v).
Cotton plants at the cotyledon stage (one plant per pot) were sprayed by an automated electrostatic plant sprayer equipped with an atomizing spray nozzle. The plants were dried in the sprayer fume hood and then removed from the sprayer. Each pot was placed into a plastic cup and about 10 to 12 whitefly adults (approximately 3-5 days old) were introduced. The insects were collected using an aspirator and a nontoxic Tygon® tubing connected to a barrier pipette tip. The tip, containing the collected insects, was then gently inserted into the soil containing the treated plant, allowing insects to crawl out of the tip to reach the foliage for feeding. Cups were covered with a reusable screened lid. […] Mortality was assessed 3 days after treatment, compared to untreated control plants.

| Compound | mortality at 2500 ppm (Ceratitis capitata) [%] | mortality at 500 ppm (Aphis craccivora) [%] | mortality at 2500 ppm (Myzus persicae) [%] | mortality at 500 ppm (Plutella xylostella) [%] | mortality at 2500 ppm (Heliothis virescens) [%] | mortality at 2500 ppm (Anthonomus grandis) [%] | mortality at 500 ppm (Dichromothrips corbetti) [%] | mortality in comparison with untreated controls (bemisia argentifolii) |
| --- | --- | --- | --- | --- | --- | --- | --- | --- |
| O=C(NCC(F)(F)F)N/N=C/c1ccc(N2CC(c3cc(Cl)cc(Cl)c3)(C(F)(F)F)OC2=O)cc1Cl (centres unmarked) [Compound 3-1, 1-[(E)-[2-chloro-4-[5-(3,5-dichlorophenyl)-2-oxo-5-(trifluoromethyl)oxazolidin-3-yl]phenyl]methyleneamino]-3-(2,2,2-trifluoroethyl)urea] | ≥ 75 | ≥ 75 | ≥ 75 | ≥ 75 | ≥ 75 | ≥ 75 | ≥ 75 | – |
| CNC(=O)NN=Cc1ccc(N2CCC(c3cc(Cl)cc(Cl)c3)(C(F)(F)F)C2)cc1Cl (centres unmarked) [Compound 2-4] | – | – | – | – | – | – | – | at least 75% |
